Source: patent US5691365A, “Nicotinic receptor antagonists in the treatment of neuropharmacological disorders” (University of Kentucky Research Foundation, priority 1995, dated 1997)
Values joined by “and” are separate entries in the source; they are usually repeats but may differ in a detail not shown here. Equal values may be shown once. “Also recorded” adds a separate entry of the source.

Columns and labels:
[1] = Ames type assays and chronic exposure studies; cited from earlier work
skin = conditions: cited from earlier work
[2] = animal and human experiments; cited from earlier work
[3] = system: rat hypothalamic and corticotropin-releasing hormone secretion; conditions: cited from earlier work
[4] = system: S(-)nicotine (10 μM)-evoked [^3 H]DA release from rat striatal slices; format: cell-based
Protocol: (§1) Biological Methods. Male Spragua-Dawley rats (150-200 g) were obtained from Harlan Laboratories (Indianapolis, Ind.) and were housed two per cage with free access to food and water in the Division of Lab Animal Resources at the College of Pharmacy at the University of Kentucky. Experimental protocols involving the animals were approved by the Institutional Animal Care and Use Committee at the University of Kentucky.
(§2) [^3 H]DA Release Assay. Rat striatal slices (500 μm thickness, 6-8 mg wet weight) were obtained as previously described (Dwoskin and Zahniser, 1986). Slices were incubated for 30 min in Krebs' buffer ([…]; 118 NaCl, 4.7 KCl, 1.2 MgCl2, 1.0 NaH2 PO4, 1.3 CaCl2, […], 11.1 glucose, 25 NaHCO3, 0.11 L-ascorbic acid nd 0.004 disodium EDTA; pH 7.4 and saturated with 95% O2 /5% CO2) in a metabolic shaker at 34°. Slices were rinsed with 15 ml of fresh buffer and incubated for an additional 30 min in fresh buffer containing 0.1 μM [^3 H]dopamine (6 slices/3 ml). Subsequently, slices were rinsed with 15 ml of fresh buffer and transferred to a glass superfusion chamber. Slices were superfused (1.0 ml/min) for 60 min with Krebs' buffer containing nomifensine (10 μm) and pargyline (10 μm) and maintained at 34° C., pH 7.4 with continual aeration (95% O2 /5% CO2). Two 5-min samples (5 ml) were collected to determine basal outflow of [^3 H]DA. N-Substituted nicotine analogues were added to the superfusion buffer after the collection of the second sample and remained in the buffer until 12 consecutive 5-min samples were collected. […] At the end of the experiment each slice was solubilized and the [^3 H] content of the tissue determined.
(§3) Radioactivity in the superfusate and tissue samples was determined by liquid scintillation spectroscopy. Fractional release for each superfusate sample was calculated by dividing the total tritium collected in each sample by the total tritium present in the tissue at the time of sample collection. Basal [^3 H]out flow was calculated from the average of the tritium collected in the two 5-min samples just before addition of the N-substituted nicotine analogue. The sums of the increase in collected tritium resulting from either exposure to the test compound or exposure to nicotine in the absence and presence of the test compound equaled total [^3 H]overflow. [^3 H]overflow was calculated by subtracting the [^3 H]outflow during an equivalent period of prestimulation from the values in samples collected during and after drug exposure. Inasmuch as the radiolabelled compounds were not separated and identified, the tritium collected in superfusate is referred to as either [^3 H]outflow or [^3 H]overflow, rather than as [^3 H]DA. [^3 H]Overflow primarily represents [^3 H]DA in the presence of nomifensine and pargyline in the superfusion buffer (Zumstein et al. 1981).
In these experiments, the striatal slices were superfused for 60 min with various concentrations of the analogues prior to nicotine (10 μM) exposure. Antagonist activity was evaluated by comparing the nicotine-evoked [^3 H]overflow in the absence and presence of the analogues. […] The relative order of potency of the classical and pyridine-N substituted nicotine analogues for inhibition of nicotine-evoked [^3 H]DA release from rat striatal slices is illustrated in FIG. 2 by a comparison of their IC50 values.
FIG. 2. IC50 values for N-substituted analogues of nicotine, nornicotine, and cotinine to inhibit nicotine-evoked [^3 H]DA release from rat striatal slices. Inhibition produced by the classical nicotinic inhibitors, mecamylamine (MEC) and DHBE was also determined. Slices were superfused with inhibitor for 60 min […] co-superfusion with 10 μM nicotine. Inhibition was determined by comparing [^3 H]DA release in the absence and presence of various concentrations of inhibitor. IC50 values were determined using the Logit-log plot (pseudo-Hill plot). […] IC50 for each animal was determined as the intercept of the linear regression.

[5] = system: dopamine 2 agonist binding in rat basil ganglia; conditions: in vivo; cited from earlier work
rabbit caudate nucleus = conditions: cited from earlier work
[6] = system: rat striatal synaptosomes; conditions: cited from earlier work
physchem = conditions: d2o, 1H-NMR
Protocol: (§4) pKa Determination. A solution [1 g in 12 mls of deuterium oxide 100% atom D] of the compound under investigation was gradually acidified by drop-wise addition of a solution of DC1 to D2 O (20% wt/wt, 99.5% atom D). The pD values were measured on a Corning pH meter. For each pD value, a sample (0.8 mls) was analyzed by ^1 H-NMR on a Varian Unity 300 MHz spectrometer using sodium 3(trimethylsilyl)-2,2,3,3-d4 -propionate (TSP) as internal reference. Protonation of the pyrrolidine- and pyridine-N atoms was followed by observing the variation in chemical shift of the N-1'-methyl and 2'-proton signals from pO 8.8 to pD 3.0. A titration curve of pD vs chemical shift was constructed to determine the pKa values of pyrrolidino-N atom and/or the pyridine-N atom.
as §4, with “Computational Chemistry.” for “pKa Determination.”, “3-(trimethylsilyl)-2,2,3,3-d4” for “3(trimethylsilyl)-2,2,3,3-d4”, “N-1'methyl” for “N-1'-methyl”, “pD” for “pO”

[7] = system: [^3 H]DA release from rat striatal slices; experiment: [3H]DA release assay: compound-evoked (intrinsic agonist) release; format: cell-based
Protocol: as §1, §2, §3

nicotine receptor = conditions: cited from earlier work
[8] = system: receptors that contain the α7, α8, or α9 subunits; conditions: cited from earlier work

In the case of `CN1CCCC1=O` [N-methyl-2-pyrrolidone], the toxicity [1] is listed as “have not revealed any significant toxicity”, the skin penetration enhancement (skin) is listed as “effective penetration enhancer” and the “irritation or sensitization potential” value [2] is listed as “very little irritation or sensitization potential”.
For `CN1CCC[C@H]1c1cccnc1` [S(-)nicotine, reference compound], the “effect on IR-rCRH secretion (in words)” value [3] is listed as “stimulated IR-rCRH secretion in a dose-dependent fashion”, the “nicotine (10 μM)-evoked total [3H]overflow, grand mean” value [4] is listed as 2.52 ± 0.12 and the “nicotine (10 μM)-evoked total [3H]overflow, range” value [4] is listed as 1.03-4.65. For the same compound, the “effect of chronic treatment on dopamine 2 agonist binding” value [5] was “decreases dopamine 2 agonist binding in rat basil ganglia”, the “effect on basal outflow of GABA” value (rabbit caudate nucleus) was “accelerated the basil outflow of gamma-aminobutyric acid (GABA)” and the “effect on [3H]dopamine release from rat striatal synaptosomes” value [6] was “stimulates the release of [3H]dopamine from rat striatal synaptosomes”. For the same compound, the pKa (physchem; pKa of pyridine-N functionality) was 3.75, the pKa (physchem; pKa of pyrrolidino-N (N'-amino) functionality) was 8.4 and the “effect on [3H]DA release / intrinsic agonist activity (in words)” value [7] was “concentration-dependent increase in [^3 H]DA release and was the most potent and efficacious compound; also recorded: concentration-dependent increase in [^3 H]DA release from rat striatal slices”. The “total [3H]overflow (effect on [3H]DA release)” value [7] was 2.80 ± 0.28 and 3.24 ± 0.37 and 5.56 ± 0.50 and the EC50 ([7]; Rattus norvegicus, read-out: EC50 for nicotine-evoked [3H]DA release) was 2000 nM.
In the case of `CN1[C@@H](CC(=O)c2ccccc2)CCC[C@H]1C[C@H](O)c1ccccc1` [alpha-lobeline], the agonist/antagonist character (nicotine receptor) is given as “mixed agonist-antagonist”.
In the case of α-bungarotoxin, the “selective blockade of nicotinic receptors with α7, α8 or α9 subunits” value [8] is given as “selectively blocks receptors that contain the α7, α8, or α9 subunits”.
